≈ marks a conversion by molar mass, not a printed value.
Test system: KB
Assay: Cytotoxicity against human KB cells
Type: functional
Details: read-out: ED50 (the source's name)

| SMILES | EC50 [µg/mL] |
| --- | --- |
| O=C1OCc2c1cc1cc3c(cc1c2-c1ccc2c(c1)OCO2)OCO3 | > 10.5 |
| COc1cc2c(O)c3c(c(-c4ccc5c(c4)OCO5)c2cc1OC)C(=O)OC3 [DIPHYLLIN] | < 1 |
| COc1c2c(c(-c3ccc4c(c3)OCO4)c3cc4c(cc13)OCO4)COC2=O [NEOJUSTICIN A] | 9 (≈ 23.8 µM) |
| COc1cc2c(OC)c3c(c(-c4ccc5c(c4)OCO5)c2cc1OC)COC3=O [NEOJUSTICIN B] | > 10.5 |
| COc1cc2c(OC)c3c(c(-c4ccc5c(c4)OCO5)c2cc1OC)C(=O)OC3 [JUSTICIDIN A] | < 1 |
